Assay results: BindingDB's records for doi:10.1021/jm0503087 (Conforma Therapeutics, 2006)

These compounds were tested against Heat shock protein HSP 90-beta (Homo sapiens, UniProt P08238) (assay: Her-2 Degradation Assay). Conditions: pH 7.2; 37 °C.
Sequence of Heat shock protein HSP 90-beta (P08238 whole entry): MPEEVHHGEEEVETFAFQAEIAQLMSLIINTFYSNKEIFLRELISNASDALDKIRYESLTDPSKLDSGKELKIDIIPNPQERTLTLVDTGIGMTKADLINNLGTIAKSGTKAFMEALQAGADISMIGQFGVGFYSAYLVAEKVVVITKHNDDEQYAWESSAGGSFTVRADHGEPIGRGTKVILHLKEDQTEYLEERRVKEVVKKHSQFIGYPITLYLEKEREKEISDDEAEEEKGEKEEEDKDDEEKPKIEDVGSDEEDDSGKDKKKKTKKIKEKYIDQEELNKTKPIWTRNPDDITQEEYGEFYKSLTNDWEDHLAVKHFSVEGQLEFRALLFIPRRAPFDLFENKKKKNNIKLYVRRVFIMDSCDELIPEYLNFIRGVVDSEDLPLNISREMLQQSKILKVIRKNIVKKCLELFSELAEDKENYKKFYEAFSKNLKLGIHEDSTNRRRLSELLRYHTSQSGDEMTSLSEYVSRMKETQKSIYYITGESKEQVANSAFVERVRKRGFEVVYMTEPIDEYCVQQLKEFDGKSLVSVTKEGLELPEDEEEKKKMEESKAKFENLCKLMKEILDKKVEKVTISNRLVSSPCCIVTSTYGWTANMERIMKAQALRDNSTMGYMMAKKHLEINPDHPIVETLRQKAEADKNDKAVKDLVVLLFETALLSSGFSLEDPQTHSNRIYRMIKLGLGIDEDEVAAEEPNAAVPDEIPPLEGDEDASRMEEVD
Experimental: A fluorescence histogram was generated, and the mean fluorescence intensity (MFI) of each sample was determined using Cellquest software.

SMILES	EC50 [nM]
COc1ccc(I)c(Sc2nc3c(N)ncnc3n2CCCNC(C)(C)C)c1	140
C#CCCCn1c(Sc2cc(OC)ccc2I)nc2c(N)nc(F)nc21 [2-fluoro-8-[(2-iodo-5-methoxyphenyl)sulfanyl]-9-(pent-4-yn-1-yl)-9H-purin-6-amine]	360
CCCCn1c(Cc2cc(OC)ccc2Br)nc2c(N)ncnc21 [8-[(2-bromo-5-methoxyphenyl)methyl]-9-butyl-9H-purin-6-amine]	8000
COc1ccc(I)c(Sc2nc3c(N)ncnc3n2CCC=C(C)C)c1 [8-[(2-iodo-5-methoxyphenyl)sulfanyl]-9-(4-methylpent-3-en-1-yl)-9H-purin-6-amine]	370
CCC(CC)NCCCn1c(Sc2cc(OC)ccc2I)nc2c(N)ncnc21 [8-[(2-iodo-5-methoxyphenyl)sulfanyl]-9-[3-(pentan-3-ylamino)propyl]-9H-purin-6-amine]	210
COc1ccc(I)c(Sc2nc3c(N)ncnc3n2CCCNC(C)C)c1 [8-[(2-iodo-5-methoxyphenyl)sulfanyl]-9-[3-(propan-2-ylamino)propyl]-9H-purin-6-amine]	180
COc1ccc(I)c(Sc2nc3c(N)ncnc3n2CCNCC(C)C)c1 [8-[(2-iodo-5-methoxyphenyl)sulfanyl]-9-{2-[(2-methylpropyl)amino]ethyl}-9H-purin-6-amine]	100
CCC(C)NCCCn1c(Sc2cc(OC)ccc2I)nc2c(N)ncnc21 (configuration not stated) [9-[3-(butan-2-ylamino)propyl]-8-[(2-iodo-5-methoxyphenyl)sulfanyl]-9H-purin-6-amine]	210
CCCCn1c(Sc2cc(OC)ccc2OC)nc2c(N)ncnc21 [9-butyl-8-[(2,5-dimethoxyphenyl)sulfanyl]-9H-purin-6-amine]	3500
CCCCn1c(Cc2cc(OC)ccc2Cl)nc2c(N)ncnc21 [9-butyl-8-[(2-chloro-5-methoxyphenyl)methyl]-9H-purin-6-amine]	20000
CCCCn1c(Cc2cc(OC)ccc2I)nc2c(N)ncnc21 [9-butyl-8-[(2-iodo-5-methoxyphenyl)methyl]-9H-purin-6-amine]	5000
CCCCn1c(Cc2cc(OC)ccc2OC)nc2c(N)ncnc21 [PU7]	12000
